In patent US8637508B2, “Heterocyclic derivatives and their use in the treatment of neurological disorders” (Novartis AG, priority 2011, dated 2014) one finds IC50 data, which are given here for 21 compounds.

Each structure is given as a SMILES string. Structures can show the parent of a compound that is named as a salt. Where two headings read alike, the source gives them in different places. A value given as a limit tells only on which side of the number the result lay.

For one test, the target named is human BACE-2 (Homo sapiens (Human), UniProt Q9Y5Z0). Briefly: Test 2: Inhibition of human BACE-2. Type of test: biochemical. The text has this: Test 2: Inhibition of Human BACE-2
In the next test the target is human BACE-1 (Homo sapiens (Human), UniProt P56817). Nature of the test: Test 1: Inhibition of human BACE-1.
The mark [1] stands for this setting: mean IC50, recombinant BACE-2, acetate buffer pH 4.5, fluorescence-quenched peptide substrate, read-out: BACE-2 IC50.
The mark [2] stands for this setting: read-out: BACE-1 IC50, mean IC50, recombinant BACE-1, acetate buffer pH 4.5, fluorescence-quenched peptide substrate.

What is called IC50 is the concentration at which inhibition is half-maximal.

Sequence of human BACE-2 (Q9Y5Z0 63-473): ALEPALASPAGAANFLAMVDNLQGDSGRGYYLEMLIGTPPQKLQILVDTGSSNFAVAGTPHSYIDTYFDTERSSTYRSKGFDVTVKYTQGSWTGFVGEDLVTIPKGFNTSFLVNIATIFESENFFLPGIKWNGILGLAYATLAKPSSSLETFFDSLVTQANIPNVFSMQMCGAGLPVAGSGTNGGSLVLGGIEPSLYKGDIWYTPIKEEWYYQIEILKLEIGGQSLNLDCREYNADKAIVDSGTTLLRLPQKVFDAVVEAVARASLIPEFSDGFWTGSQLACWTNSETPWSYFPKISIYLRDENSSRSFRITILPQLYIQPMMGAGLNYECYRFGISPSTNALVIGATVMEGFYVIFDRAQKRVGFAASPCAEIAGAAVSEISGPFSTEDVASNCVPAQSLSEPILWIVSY
Sequence of human BACE-1 (P56817 46-457): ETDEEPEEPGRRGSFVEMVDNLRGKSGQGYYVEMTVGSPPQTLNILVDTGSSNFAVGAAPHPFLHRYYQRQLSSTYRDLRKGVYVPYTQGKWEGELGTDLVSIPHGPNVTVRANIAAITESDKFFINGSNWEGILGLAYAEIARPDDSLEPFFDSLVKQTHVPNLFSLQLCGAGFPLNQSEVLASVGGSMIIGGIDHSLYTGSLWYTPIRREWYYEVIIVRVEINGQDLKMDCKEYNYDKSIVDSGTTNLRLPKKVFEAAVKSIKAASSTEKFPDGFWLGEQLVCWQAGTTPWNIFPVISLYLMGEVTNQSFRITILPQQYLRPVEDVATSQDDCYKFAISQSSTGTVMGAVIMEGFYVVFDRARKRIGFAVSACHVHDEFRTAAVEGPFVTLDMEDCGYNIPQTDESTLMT

On to `NC1=NC(CF)(c2cc(NC(=O)c3ccc(Br)cn3)cnc2Cl)COC1` (stereo not drawn) [Example 18, 5-Bromo-pyridine-2-carboxylic acid [5-(5-amino-3-fluoromethyl-3,6-dihydro-2H-[1,4]oxazin-3-yl)-6-chloro-pyridin-3-yl]-amide hydrochloride], for which the figures for the 50% inhibitory concentration (IC50) on human BACE-2 (setting [1]) and on human BACE-1 (setting [2]) were 130 nM and 140 nM, respectively.
Take `C[C@@]1(c2cccc(NC(=O)c3ncc(C#N)cc3N)n2)CO[C@@](C)(C(F)(F)F)C(N)=N1` [Example 19, 3-Amino-5-cyano-pyridine-2-carboxylic acid [6-((3R,6R)-5-amino-3,6-dimethyl-6-trifluoromethyl-3,6-dihydro-2H-[1,4]oxazin-3-yl)-pyridin-2-yl]-amide]: the concentration for half-maximal inhibition (IC50) at human BACE-2 (setting [1]) was 82 nM; at human BACE-1 (setting [2]) it was 43 nM.
On to `C[C@@]1(c2cccc(NC(=O)c3ncc(C#N)cc3Cl)n2)CO[C@@](C)(C(F)(F)F)C(N)=N1` [Example 20, 3-Chloro-5-cyano-pyridine-2-carboxylic acid [6-((3R,6R)-5-amino-3,6-dimethyl-6-trifluoromethyl-3,6-dihydro-2H-[1,4]oxazin-3-yl)-pyridin-2-yl]-amide], for which the IC50 was determined as 41 nM at human BACE-2 (setting [1]) and 10 nM at human BACE-1 (setting [2]).
For `[2H]c1nc(C(=O)Nc2cccc([C@]3(C)CO[C@@](C)(C(F)(F)F)C(N)=N3)n2)c(C([2H])([2H])[2H])c([2H])c1Cl` [Example 21, 5-Chloro-4,6-dideuterio-3-trideuteriomethyl-pyridine-2-carboxylic acid [6-((3R,6R)-5-amino-3,6-dimethyl-6-trifluoromethyl-3,6-dihydro-2H-[1,4]oxazin-3-yl)-pyridin-2-yl]-amide], the concentration for half-maximal inhibition (IC50) on human BACE-2 amounted to 8 nM; on human BACE-1 it was 31 nM.
Consider `C[C@@]1(c2cccc(NC(=O)c3ncc(Br)cc3Cl)n2)CO[C@@](C)(C(F)(F)F)C(N)=N1` [Example 22, 5-Bromo-3-chloro-pyridine-2-carboxylic acid [6-((3R,6R)-5-amino-3,6-dimethyl-6-trifluoromethyl-3,6-dihydro-2H-[1,4]oxazin-3-yl)-pyridin-2-yl]-amide], for which the concentration for half-maximal inhibition (IC50) was 5 nM at human BACE-2 (setting [1]) and 13 nM on human BACE-1 (setting [2]).
The like results for `C[C@@]1(c2cccc(NC(=O)c3ncc(OCC(F)(F)F)nc3N)n2)CO[C@@](C)(C(F)(F)F)C(N)=N1` [Example 23, 3-Amino-5-(2,2,2-trifluoro-ethoxy)-pyrazine-2-carboxylic acid [6-((3R,6R)-5-amino-3,6-dimethyl-6-trifluoromethyl-3,6-dihydro-2H-[1,4]oxazin-3-yl)-pyridin-2-yl]-amide] were, in that order, above 10000 nM and 1200 nM.
`COc1cnc(C(=O)Nc2ccc(F)c([C@]3(C)CO[C@@](C)(C(F)(F)F)C(N)=N3)n2)c(C)c1` [Example 25, 5-Methoxy-3-methyl-pyridine-2-carboxylic acid [6-((3R,6R)-5-amino-3,6-dimethyl-6-trifluoromethyl-3,6-dihydro-2H-[1,4]oxazin-3-yl)-5-fluoro-pyridin-2-yl]amide]: the IC50 at human BACE-2 (setting [1]) stood at 15 nM; on human BACE-1 (setting [2]), 93 nM.
For the compound `Cc1cc(OC(F)F)cnc1C(=O)Nc1ccc(F)c([C@]2(C)CO[C@@](C)(C(F)(F)F)C(N)=N2)n1` [Example 29, 5-Difluoromethoxy-3-methyl-pyridine-2-carboxylic acid [6-((3R,6R)-5-amino-3,6-dimethyl-6-trifluoromethyl-3,6-dihydro-2H-[1,4]oxazin-3-yl)-5-fluoro-pyridin-2-yl]amide], the results for the IC50 at human BACE-2 (setting [1]) and at human BACE-1 (setting [2]) were 24 nM and 26 nM, respectively.
For `Cc1cc(OCF)cnc1C(=O)Nc1ccc(F)c([C@]2(C)CO[C@@](C)(C(F)(F)F)C(N)=N2)n1` [Example 32, 5-Fluoromethoxy-3-methyl-pyridine-2-carboxylic acid [6-((3R,6R)-5-amino-3,6-dimethyl-6-trifluoromethyl-3,6-dihydro-2H-[1,4]oxazin-3-yl)-5-fluoro-pyridin-2-yl]amide], the concentration for half-maximal inhibition (IC50) was found to be 7 nM on human BACE-2 (setting [1]) and 45 nM on human BACE-1 (setting [2]).
For `Cc1cnc(C(=O)Nc2ccc(F)c([C@]3(C)CO[C@@](C)(C(F)(F)F)C(N)=N3)n2)cn1` [Example 33, 5-Methyl-pyrazine-2-carboxylic acid [6-((3R,6R)-5-amino-3,6-dimethyl-6-trifluoromethyl-3,6-dihydro-2H-[1,4]oxazin-3-yl)-5-fluoro-pyridin-2-yl]amide], in that order: 330 nM and 820 nM.
Turning to `C[C@@]1(c2cc(NC(=O)c3ncc(C#N)cc3Cl)ncc2F)CO[C@@](C)(C(F)(F)F)C(N)=N1` [Example 35, 3-Chloro-5-cyano-pyridine-2-carboxylic acid [4-((3R,6R)-5-amino-3,6-dimethyl-6-trifluoromethyl-3,6-dihydro-2H-[1,4]oxazin-3-yl)-5-fluoro-pyridin-2-yl]-amide], the IC50 came out at 120 nM on human BACE-2 (setting [1]) and 150 nM on human BACE-1 (setting [2]).
With `C[C@@]1(c2cc(NC(=O)c3ncc(OC(F)F)cc3Cl)ncc2F)CO[C@@](C)(C(F)(F)F)C(N)=N1` [Example 36, 3-Chloro-5-difluoromethoxy-pyridine-2-carboxylic acid [4-((3R,6R)-5-amino-3,6-dimethyl-6-trifluoromethyl-3,6-dihydro-2H-[1,4]oxazin-3-yl)-5-fluoro-pyridin-2-yl]-amide], the IC50 at human BACE-2 (setting [1]) was determined as 280 nM; on human BACE-1 (setting [2]) it was 410 nM.
For `Cc1cc(C#N)cnc1C(=O)Nc1cc([C@]2(C)COC(CF)(CF)C(N)=N2)c(F)cn1` [Example 37, 5-Cyano-3-methyl-pyridine-2-carboxylic acid [4-((R)-5-amino-6,6-bis-fluoromethyl-3-methyl-3,6-dihydro-2H-[1,4]oxazin-3-yl)-5-fluoro-pyridin-2-yl]-amide], the concentration for half-maximal inhibition (IC50) on human BACE-2 (setting [1]) is 430 nM; at human BACE-1 (setting [2]), 380 nM.
For `Cc1cc(C#N)cnc1C(=O)Nc1ccc(F)c([C@]2(C(F)F)COCC(N)=N2)n1` [Example 38, 5-Cyano-3-methyl-pyridine-2-carboxylic acid [6-((R)-5-amino-3-difluoromethyl-3,6-dihydro-2H-[1,4]oxazin-3-yl)-5-fluoro-pyridin-2-yl]-amide], the results for the IC50 at human BACE-2 (setting [1]) and at human BACE-1 (setting [2]) were 160 nM and 33 nM, respectively.
The like results for `Cc1cc(C#N)cnc1C(=O)Nc1ccc(F)c([C@@]2(C(F)F)COCC(N)=N2)n1` [Example 39, 5-Cyano-3-methyl-pyridine-2-carboxylic acid [6-((S)-5-amino-3-difluoromethyl-3,6-dihydro-2H-[1,4]oxazin-3-yl)-5-fluoro-pyridin-2-yl]-amide] were, in that order, 6500 nM and 1500 nM.
On to `N#Cc1cnc(C(=O)Nc2ccc(F)c([C@]3(C(F)F)COCC(N)=N3)n2)c(Cl)c1` [Example 40, 3-Chloro-5-cyano-pyridine-2-carboxylic acid [6-((R)-5-amino-3-difluoromethyl-3,6-dihydro-2H-[1,4]oxazin-3-yl)-5-fluoro-pyridin-2-yl]-amide], for which the 50% inhibitory concentration (IC50) is 170 nM on human BACE-2 (setting [1]) and 42 nM on human BACE-1 (setting [2]).
As to `COCCn1ccc2nc(C(=O)Nc3ccc(F)c([C@]4(C)CO[C@@](C)(C(F)(F)F)C(N)=N4)n3)c(N)nc21` [Example 43, 3-Amino-5-(2-methoxy-ethyl)-5H-pyrrolo[2,3-b]pyrazine-2-carboxylic acid [6-((3R,6R)-5-amino-3,6-dimethyl-6-trifluoromethyl-3,6-dihydro-2H-[1,4]oxazin-3-yl)-5-fluoro-pyridin-2-yl]amide], the IC50 is above 10000 nM at human BACE-2 and 1200 nM at human BACE-1 (setting [2]).
`C[C@@]1(c2nc(NC(=O)c3nc4ccn(CC(F)F)c4nc3N)ccc2F)CO[C@@](C)(C(F)(F)F)C(N)=N1` [Example 45, 3-Amino-5-(2,2-difluoro-ethyl)-5H-pyrrolo[2,3-b]pyrazine-2-carboxylic acid [6-((3R,6R)-5-amino-3,6-dimethyl-6-trifluoromethyl-3,6-dihydro-2H-[1,4]oxazin-3-yl)-5-fluoro-pyridin-2-yl]amide]: the concentration for half-maximal inhibition (IC50) at human BACE-2 and on human BACE-1 was above 10000 nM throughout.
As to `C[C@@]1(c2nc(NC(=O)c3nn(C(F)F)cc3Cl)ccc2F)CO[C@@](C)(C(F)(F)F)C(N)=N1` [Example 46, 4-Chloro-1-difluoromethyl-1H-pyrazole-3-carboxylic acid [6-((3R,6R)-5-amino-3,6-dimethyl-6-trifluoromethyl-3,6-dihydro-2H-[1,4]oxazin-3-yl)-5-fluoro-pyridin-2-yl]-amide], the 50% inhibitory concentration (IC50) at human BACE-2 (setting [1]) came out at 5 nM; at human BACE-1 (setting [2]), 10 nM.
On to `C[C@@]1(c2nc(NC(=O)c3nc4ccn(CC(F)F)c4cc3Cl)ccc2F)CO[C@@](C)(C(F)(F)F)C(N)=N1` [Example 47, 6-Chloro-1-(2,2-difluoro-ethyl)-1H-pyrrolo[3,2-b]pyridine-5-carboxylic acid [6-((3R,6R)-5-amino-3,6-dimethyl-6-trifluoromethyl-3,6-dihydro-2H-[1,4]oxazin-3-yl)-5-fluoro-pyridin-2-yl]-amide], for which the IC50 at human BACE-2 (setting [1]) was 5400 nM; against human BACE-1 it was above 10000 nM.
On to `COCCn1ccc2nc(C(=O)Nc3ccc(F)c([C@]4(C)CO[C@@](C)(C(F)(F)F)C(N)=N4)n3)c(Cl)cc21` [Example 48, 6-Chloro-1-(2-methoxy-ethyl)-1H-pyrrolo[3,2-b]pyridine-5-carboxylic acid [6-((3R,6R)-5-amino-3,6-dimethyl-6-trifluoromethyl-3,6-dihydro-2H-[1,4]oxazin-3-yl)-5-fluoro-pyridin-2-yl]-amide], for which the IC50 is above 10000 nM against human BACE-2 and 7300 nM at human BACE-1 (setting [2]).
